# Data: PMC2862721, “The Tegument of the Human Parasitic Worm Schistosoma mansoni as an Excretory Organ: The Surface Aquaporin SmAQP Is a Lactate Transporter” (PLoS ONE, 2010)
# T1: SmAQP (Schistosoma mansoni, UniProt C4PYI6)
# T1 construct: gene AQP1; 304 aa membrane protein
# T1 sequence (C4PYI6 1-304): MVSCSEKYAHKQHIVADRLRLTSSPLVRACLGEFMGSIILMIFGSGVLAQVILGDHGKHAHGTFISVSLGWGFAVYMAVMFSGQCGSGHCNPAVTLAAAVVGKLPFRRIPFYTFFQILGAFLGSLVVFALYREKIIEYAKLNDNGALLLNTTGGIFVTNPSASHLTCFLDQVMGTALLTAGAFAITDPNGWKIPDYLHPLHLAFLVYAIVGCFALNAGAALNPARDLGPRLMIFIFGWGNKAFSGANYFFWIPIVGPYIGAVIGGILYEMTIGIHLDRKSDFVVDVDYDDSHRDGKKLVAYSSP
# B1: SmAQP (Schistosoma mansoni) (protein)
# chain: T1 sequence (C4PYI6 1-304)
# notes: 304 aa membrane protein
# How the values were obtained:
# SmAQP = target: T1, SmAQP; test: inhibition of radiolabelled lactate uptake in Xenopus oocytes, variable-slope fit; format: cell-based; details: read-out: Ki (half maximal inhibitory concentration); Ki50
# [1] = substrate: C[C@H](O)C(=O)O; test: cells, lysate or membranes; format: cell-based, Schistosoma mansoni; details: 0.1-100 mM lactate; labelled compound; non-injected oocyte values subtracted
Molecule,IC50 (SmAQP) [µM],Km [1] [mM]
O=C(CCc1ccc(O)cc1)c1c(O)cc(O)cc1O [phloretin],22,–
B1,–,41 ± 5.8
